Patent US9351974B2, “Substituted pteridinones for the treatment of cancer” (OSI Pharmaceuticals, LLC, priority 2011, dated 2016)

These molecules were tested against T1, His-tagged full-length RSK2 (RPS6KA3) (Homo sapiens, UniProt P51812) (assay: RSK2 Omnia Assay for compound IC50 determination). Settings: ATP 15 μM, n=2, read-out: Mean RSK2 Biochem IC50.
T1 construct: His-tagged full-length RSK2 (RPS6KA3, Invitrogen PV3323); His; purchased Invitrogen PV3323
Assay type: biochemical
Summary of the method: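 Initial-rate slopes from continuous kinetic reads were fitted to a four-parameter equation for IC50 (n=2). Ki was then derived by Cheng-Prusoff assuming ATP-competitive inhibition. Reactions contained 15 μM ATP (Km 16.3 μM), 5 μM Omnia ST Peptide 6, and […] in 50 mM HEPES pH 7.5, 10 mM MgCl2, 1 mM DTT, 1% DMSO. Compounds spanned 11 threefold steps, […] final.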

T1 sequence (P51812 whole entry): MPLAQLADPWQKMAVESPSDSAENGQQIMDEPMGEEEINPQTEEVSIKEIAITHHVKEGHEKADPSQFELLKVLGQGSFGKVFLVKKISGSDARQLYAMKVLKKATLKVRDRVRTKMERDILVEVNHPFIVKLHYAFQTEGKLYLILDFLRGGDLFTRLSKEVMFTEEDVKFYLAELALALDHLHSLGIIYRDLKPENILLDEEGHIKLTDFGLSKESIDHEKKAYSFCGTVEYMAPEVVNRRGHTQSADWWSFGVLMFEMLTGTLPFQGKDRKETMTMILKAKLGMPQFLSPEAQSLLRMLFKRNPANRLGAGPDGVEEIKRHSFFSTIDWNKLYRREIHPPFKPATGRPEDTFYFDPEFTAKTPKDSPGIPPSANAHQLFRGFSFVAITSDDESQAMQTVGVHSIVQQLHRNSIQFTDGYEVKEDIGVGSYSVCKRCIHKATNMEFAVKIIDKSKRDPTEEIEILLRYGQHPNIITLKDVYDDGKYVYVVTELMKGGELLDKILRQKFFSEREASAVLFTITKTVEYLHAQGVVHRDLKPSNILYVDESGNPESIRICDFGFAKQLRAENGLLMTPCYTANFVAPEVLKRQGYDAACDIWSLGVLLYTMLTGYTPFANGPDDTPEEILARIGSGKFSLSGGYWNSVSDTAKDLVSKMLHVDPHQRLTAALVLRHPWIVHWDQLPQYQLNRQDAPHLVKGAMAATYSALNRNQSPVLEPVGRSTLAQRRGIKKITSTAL

SMILES	IC50 [µM]
COC(=O)c1ccc(Nc2ncc3c(n2)N(CCC(C)C)C(C)C(=O)N3c2ccccc2)cc1 (centres unmarked) [Example 9, methyl 4-{[7-methyl-8-(3-methylbutyl)-6-oxo-5-phenyl-5,6,7,8-tetrahydropteridin-2-yl]amino}benzoate]	> 1
C[C@@H]1C(=O)N(c2cccc(C#N)c2)c2cnc(Nc3ccc(C#N)cc3)nc2N1C1CCC(F)(F)CC1 [compound 274, 3-[(7R)-2-[(4-cyanophenyl)amino]-8-(4,4-difluorocyclohexyl)-7-methyl-6-oxo-7,8-dihydropteridin-5(6H)-yl]benzonitrile]	0.1 to 1
CC(C)Oc1ccc(N2C(=O)[C@@H](C)N([C@H]3CC[C@H](C)CC3)c3nc(Nc4cnc5[nH]ncc5c4)ncc32)cc1C#N [compound 248, 5-[(7R)-7-methyl-8-(trans-4-methylcyclohexyl)-6-oxo-2-(1H-pyrazolo[3,4-b]pyridin-5-ylamino)-7,8-dihydropteridin-5(6H)-yl]-2-(propan-2-yloxy)benzonitrile]	≤ 0.1
COc1ccc(N2C(=O)[C@@H](C)N(C3CCC(F)(F)CC3)c3nc(Nc4cnc5[nH]ncc5c4)ncc32)cc1C#N [compound 279, 5-[(7R)-8-(4,4-difluorocyclohexyl)-7-methyl-6-oxo-2-(1H-pyrazolo[3,4-b]pyridin-5-ylamino)-7,8-dihydropteridin-5(6H)-yl]-2-methoxybenzonitrile]	≤ 0.1
CC1C(=O)N(c2ccccc2)c2cnc(Nc3ccc4[nH]ncc4c3)nc2N1c1ccccc1 (centres unmarked) [Example 178, 2-(1H-indazol-5-ylamino)-7-methyl-5,8-diphenyl-7,8-dihydropteridin-6(5H)-one]	≤ 0.1
CC(C)Oc1ccc(N2C(=O)[C@@H](C)N(C3CCOCC3)c3nc(Nc4cnc5[nH]ncc5c4)ncc32)cc1C#N [compound 202, 5-[(7R)-7-methyl-6-oxo-2-(1H-pyrazolo[3,4-b]pyridin-5-ylamino)-8-(tetrahydro-2H-pyran-4-yl)-7,8-dihydropteridin-5(6H)-yl]-2-(propan-2-yloxy)benzonitrile]	≤ 0.1
N#Cc1cccc(N2C(=O)[C@H]3CCCN3c3nc(Nc4cc(F)c5[nH]ncc5c4)ncc32)c1 [Example 84, 3-[(6aR)-2-[(7-fluoro-1H-indazol-5-yl)amino]-6-oxo-6a,7,8,9-tetrahydropyrrolo[2,1-h]pteridin-5(6H)-yl]benzonitrile]	0.1 to 1
CCOc1ccc(N2C(=O)[C@@H](C)N(C3CCOCC3)c3nc(Nc4cc(F)c5[nH]c(=O)oc5c4)ncc32)cc1C#N [compound 204, 2-Ethoxy-5-[(7R)-2-[(4-fluoro-2-oxo-2,3-dihydro-1,3-benzoxazol-6-yl)amino]-7-methyl-6-oxo-8-(tetrahydro-2H-pyran-4-yl)-7,8-dihydropteridin-5(6H)-yl]benzonitrile]	≤ 0.1
CC(C)CCN1c2nc(Nc3cc(F)c(O)c(F)c3)ncc2N(c2cccc(C#N)c2)C(=O)[C@H]1C [Example 89, 3-[(7R)-2-[(3,5-difluoro-4-hydroxyphenyl)amino]-7-methyl-8-(3-methylbutyl)-6-oxo-7,8-dihydropteridin-5(6H)-yl]benzonitrile]	≤ 0.1
CC(C)CCN1c2nc(Nc3ccc4[nH]ncc4c3)ncc2N(c2ccccc2)C(=O)[C@@H]1C [Example 17, (7S)-2-(1H-indazol-5-ylamino)-7-methyl-8-(3-methylbutyl)-5-phenyl-7,8-dihydropteridin-6(5H)-one]	≤ 0.1
COc1ccc(N2C(=O)[C@@H](C)N([C@H]3CC[C@H](C)CC3)c3nc(Nc4cc(F)c5[nH]ncc5c4)ncc32)cc1OC [compound 239, (7R)-5-(3,4-dimethoxyphenyl)-2-[(7-fluoro-1H-indazol-5-yl)amino]-7-methyl-8-(trans-4-methylcyclohexyl)-7,8-dihydropteridin-6(5H)-one]	≤ 0.1
CCOc1ccc(N2C(=O)[C@@H](C)N([C@H]3CC[C@H](C)CC3)c3nc(Nc4cnc5[nH]ncc5c4)ncc32)cc1C#N [compound 246, 2-Ethoxy-5-[(7R)-7-methyl-8-(trans-4-methylcyclohexyl)-6-oxo-2-(1H-pyrazolo[3,4-b]pyridin-5-ylamino)-7,8-dihydropteridin-5(6H)-yl]benzonitrile]	≤ 0.1

Next, values leading:

IC50 [µM]	SMILES
≤ 0.1	C[C@@H]1C(=O)N(c2cccc(Cl)c2)c2cnc(Nc3ccc4[nH]ncc4c3)nc2N1C1CCCCC1 [Example 31, (7R)-5-(3-chlorophenyl)-8-cyclohexyl-2-(1H-indazol-5-ylamino)-7-methyl-7,8-dihydropteridin-6(5H)-one]
≤ 0.1	C[C@@H]1C(=O)N(c2ccccc2)c2cnc(Nc3ccc4[nH]ncc4c3)nc2N1CC1CCCCC1 [Example 72, (7R)-8-(cyclohexylmethyl)-2-(1H-indazol-5-ylamino)-7-methyl-5-phenyl-7,8-dihydropteridin-6(5H)-one]
≤ 0.1	C[C@@H]1C(=O)N(c2cccc(C#N)c2)c2cnc(Nc3cnc4[nH]c(=O)oc4c3)nc2N1C1CCCCC1 [compound 172, 3-[(7R)-8-cyclohexyl-7-methyl-6-oxo-2-[(2-oxo-2,3-dihydro[1,3]oxazolo[4,5-b]pyridin-6-yl)amino]-7,8-dihydropteridin-5(6H)-yl]benzonitrile]
≤ 0.1	C[C@@H]1C(=O)N(c2ccc(N3CCN(C)CC3)nc2)c2cnc(Nc3cc(F)c4[nH]ncc4c3)nc2N1C1CCCCC1 [compound 139, (7R)-8-cyclohexyl-2-[(7-fluoro-1H-indazol-5-yl)amino]-7-methyl-5-[6-(4-methylpiperazin-1-yl)pyridin-3-yl]-7,8-dihydropteridin-6(5H)-one]
≤ 0.1	C[C@@H]1C(=O)N(c2cncc(C#N)c2)c2cnc(Nc3ccc4[nH]ncc4c3)nc2N1C1CCCCC1 [compound 128, 5-[(7R)-8-cyclohexyl-2-(1H-indazol-5-ylamino)-7-methyl-6-oxo-7,8-dihydropteridin-5(6H)-yl]pyridine-3-carbonitrile]
0.1 to 1	C[C@H]1C(=O)N(c2ccccc2)c2cnc(Nc3ccc4[nH]ncc4c3)nc2N1C1CCCCC1 [Example 62, (7S)-8-cyclohexyl-2-(1H-indazol-5-ylamino)-7-methyl-5-phenyl-7,8-dihydropteridin-6(5H)-one]
≤ 0.1	C[C@@H]1C(=O)N(c2cccc(OC(F)(F)F)c2)c2cnc(Nc3ccc4[nH]ncc4c3)nc2N1C1CCCCC1 [Example 34, (7R)-8-cyclohexyl-2-(1H-indazol-5-ylamino)-7-methyl-5-[3-(trifluoromethoxy)phenyl]-7,8-dihydropteridin-6(5H)-one]
≤ 0.1	COc1cccc(N2C(=O)[C@@H](C)N(C3CCCCC3)c3nc(Nc4ccc5[nH]ncc5c4)ncc32)c1 [Example 28, (7R)-8-cyclohexyl-2-(1H-indazol-5-ylamino)-5-(3-methoxyphenyl)-7-methyl-7,8-dihydropteridin-6(5H)-one]
≤ 0.1	C[C@@H]1C(=O)N(c2cccc(C#N)c2)c2cnc(Nc3cc4cn[nH]c4cc3F)nc2N1C1CCCCC1 [Example 56, 3-[(7R)-8-cyclohexyl-2-[(6-fluoro-1H-indazol-5-yl)amino]-7-methyl-6-oxo-7,8-dihydropteridin-5(6H)-yl]benzonitrile]
≤ 0.1	COC(=O)c1ccc(N2C(=O)[C@@H](C)N(C3CCCCC3)c3nc(Nc4ccc5[nH]ncc5c4)ncc32)cc1 [Example 52, methyl 4-[(7R)-8-cyclohexyl-2-(1H-indazol-5-ylamino)-7-methyl-6-oxo-7,8-dihydropteridin-5(6H)-yl]benzoate]
≤ 0.1	COc1ccc(N2C(=O)[C@@H](C)N(C3CCCCC3)c3nc(Nc4cc(F)c5[nH]ncc5c4)ncc32)cc1OC [compound 132, (7R)-8-cyclohexyl-5-(3,4-dimethoxyphenyl)-2-[(7-fluoro-1H-indazol-5-yl)amino]-7-methyl-7,8-dihydropteridin-6(5H)-one]
≤ 0.1	C[C@@H]1C(=O)N(c2cccc(C#N)c2)c2cnc(Nc3cc4cn[nH]c4cc3Cl)nc2N1C1CCCCC1 [compound 118, 3-[(7R)-2-[(6-chloro-1H-indazol-5-yl)amino]-8-cyclohexyl-7-methyl-6-oxo-7,8-dihydropteridin-5(6H)-yl]benzonitrile]
0.1 to 1	O=c1c(=O)n(C2CCCC2)c2nc(Nc3ccc4[nH]ncc4c3)ncc2n1-c1ccccc1 [Example 307, 8-cyclopentyl-2-(1H-indazol-5-ylamino)-5-phenyl-5,8-dihydropteridine-6,7-dione]
≤ 0.1	C[C@@H]1C(=O)N(c2cccc(S(C)(=O)=O)c2)c2cnc(Nc3ccc4[nH]ncc4c3)nc2N1C1CCCCC1 [Example 43, (7R)-8-cyclohexyl-2-(1H-indazol-5-ylamino)-7-methyl-5-[3-(methylsulfonyl)phenyl]-7,8-dihydropteridin-6(5H)-one]
≤ 0.1	COC(=O)c1cc(N2C(=O)[C@@H](C)N(C3CCCCC3)c3nc(Nc4ccc5[nH]ncc5c4)ncc32)cs1 [compound 177, methyl 4-[(7R)-8-cyclohexyl-2-(1H-indazol-5-ylamino)-7-methyl-6-oxo-7,8-dihydropteridin-5(6H)-yl]thiophene-2-carboxylate]
≤ 0.1	C[C@@H]1C(=O)N(c2ccc[n+]([O-])c2)c2cnc(Nc3cc(F)c4[nH]ncc4c3)nc2N1C1CCCCC1 [Example 303, (7R)-8-cyclohexyl-2-[(7-fluoro-1H-indazol-5-yl)amino]-7-methyl-5-(1-oxidopyridin-3-yl)-7,8-dihydropteridin-6(5H)-one]
≤ 0.1	COc1cc(F)cc(N2C(=O)[C@@H](C)N(C3CCCCC3)c3nc(Nc4ccc5[nH]ncc5c4)ncc32)c1 [compound 99, (7R)-8-cyclohexyl-5-(3-fluoro-5-methoxyphenyl)-2-(1H-indazol-5-ylamino)-7-methyl-7,8-dihydropteridin-6(5H)-one]
